Test results from article PMC8583417, “Evaluation of the Antimicrobial Efficacy of N-Acetyl-L-Cysteine, Rhamnolipids, and Usnic Acid—Novel Approaches to Fight Food-Borne Pathogens” (International Journal of Molecular Sciences, 2021).

Tests used:
E. coli 693/17 [1] = assay: CLSM analysis, biofilm prevention; assay type: cell-based, Escherichia coli; details: 24 h exposure; for Thickness (µm) subCBM80: substance at subinhibitory concentration, mean ± SD
Protocol: (§1) Biofilm prevention and removal analyses were performed using previously determined minimum inhibitory and subinhibitory concentrations for metabolic activity (MICBM80, subCBM80; MICMPB80, subCMPB80) of NAC, RLs, and UA specific for each tested strain. Selected concentrations were used to evaluate the inhibition of biofilm formation (biofilm prevention) and the reduction in previously formed biofilms (biofilm removal) for the same set of microorganisms, with the exception of S. Infantis, which was excluded from the analysis due to its inability to form biofilm in the selected microtiter plate. Biofilm prevention and removal were observed using CLSM with specific staining to distinguish between live and membrane-compromised cells. Images were analyzed to evaluate (i). the total volume of the biomass, (ii). ratios of live and membrane-compromised cells, and (iii). to calculate biofilm volume reduction for individual organisms after the respective treatment types. The total biofilm volume was normalized by the area of the well and expressed as an average biofilm thickness. Complete data are provided in Supplementary Materials (Tables S1–S8).
(§2) For both inhibition and reduction of biofilms, overnight cultures from BHI were diluted in TSB + 1% Glc to reach an absorbance of 0.08 to 0.1 at 625 nm. The inoculum (150 µL) was transferred into wells of the 96-well flat-bottomed Ibidiμ-Plate (Ibidi, Gräfelfing, Germany) and mixed with 150 µL of each of the three tested substances in technical quadruplicates, followed by incubation at 37 °C for 24 h. Simultaneously, the prepared bacterial suspensions were inoculated to an additional microtiter plate (200 µL) and allowed to form biofilm overnight (18 h at 37 °C). After the incubation, the content of the well was drained off, and 200 µL of each of the three tested substances was added to the plate, which was then incubated for an additional 20 h. The used concentrations of the substances represented the subinhibitory and minimum inhibitory concentrations for metabolic activity (subCBM80, MICBM80; subCMPB80, MICMPB80). Both setups contained a positive control of the bacterial growth (inoculum mixed with sterile TSB + 1% Glc medium) and a control monitoring microbial contamination (sterile medium). Non-treated wells were used as a positive control for comparison between non-treated and treated biofilm mass.
(§3) Prior to the imaging, the wells were stained with the LIVE/DEAD® BacLight™ Bacterial Viability Kit (Thermo Fisher Scientific, MA, USA) following the manufacturer’s guidelines and Drago et al.. Briefly, equal volumes of SYTO® 9 and propidium iodide were combined with the sterile distilled water to reach a final concentration of […]. The biofilm mass was stained using 300 µL of the staining solution per well followed by incubation at 37 °C in the dark for 15 min. Stained wells were washed once with sterile distilled water, which was then added to each well (300 µL). Images were acquired with an inverted Leica SP5 CLSM using a 1.25× dry objective (WD 3.7 mm, Z-resolution 27 µm, up to 24 Z-stacks per well) to visualize an entire well. Samples were kept at the cultivation conditions (37 °C, 5% CO2, 90% humidity) with an OkoLabs stage top environmental chamber (Oko Labs, PA, USA). Fluorophore excitation lasers and emission bandwidths were as follows: SYTO® 9 (ex/em 485/498 nm) 488 nm excitation, 495 to 550 nm emission collection; propidium iodide (ex/em 535/617 nm) 561 nm excitation, 595 to 650 nm emission collection. The laser beam scanned the visual field at a frequency of 600 Hz. The wells were captured in snapshots of 1024 × 1024 pixels representing the area of 153.76 mm^2.
(§4) All collected images were statistically evaluated to quantify biovolume utilizing the surface estimation procedure described in Parker et al.. […]

E. coli 683/17 [2] = assay: CLSM analysis, biofilm prevention; assay type: cell-based, Escherichia coli; details: 24 h exposure; for Thickness (µm) subCBM80: substance at subinhibitory concentration, mean ± SD
Protocol: as §1, §2, §3, §4

E. coli 683/17 [3] = assay: MIC for biofilm formation (crystal violet staining); assay type: cell-based, Escherichia coli; details: for MICBF80: ≥80% prevention, 24 h
Protocol: (§5) Ten concentrations of NAC, RLs, and UA were tested to determine the minimum inhibitory concentration for planktonic growth, and subsequently, the six highest concentrations were applied on preformed biofilms to evaluate the biofilm eradication ability of the compounds. MIC was defined as the lowest substance concentration able to inhibit at least 80% of microbial growth (MICPC80 for planktonic cells, MICBC80 for further growth of biofilm cells), inhibit 80% of metabolic activity (MICBM80 for biofilm metabolic activity, MICMPB80 for metabolic activity of preformed biofilm), prevent biofilm formation by at least 80% (MICBF80 for biofilm formation), or reduce a preformed biofilm by at least 80% (MICBR80 for biofilm reduction). The results of MICs are summarized in Table 1 (planktonic cells) and Table 2 (biofilm-associated cells).
(§6) The determination of MICs was performed according to Chlumsky et al.. Briefly, 96-well flat-bottomed microtiter plates were inoculated with 75 µL (for biofilm formation) or 100 µL (for preformed biofilm) of bacterial suspension (A625nm 0.08 to 0.1) in technical triplicates and were then carefully mixed with the dilution series of the test substances (24 h cultivation at 25 °C for S. Infantis, 37 °C for other strains) or were directly cultivated to preform biofilms (18 h). For a positive control of bacterial growth, the inoculum was mixed with a pure sterile medium. Furthermore, the sterile medium was included in the plate as a marker of potential microbial contamination. To evaluate planktonic cells growth (MICPC80) and further growth of biofilm cells (MICBC80), the optical density of the content of the microtiter plates was measured spectrophotometrically at 625 nm before and after 24 h (for biofilm formation) of cultivation or before and after additional 20 h incubation with the tested compound (for preformed biofilm). The difference of A625nm was considered as a measure of the ability of cells to grow in the presence of the tested substances. To evaluate the inhibition of biofilm formation (MICBF80) and reduction in preformed biofilms (MICBR80), biomass was quantified using crystal violet staining, and its metabolic activity (MICBM80 and MICMPB80) was estimated by using the MTT (thiazyl tetrazolium bromide, Sigma-Aldrich, USA) reduction assay, both measured spectrophotometrically at 595 nm.
(§7) All inhibitions were calculated using the formula of Chlumsky et al. below (Equation (1)):(1) A625(595)nm inhibition (%)=A625(595)nm (control) – A625(595)nm(natural substance)/A625(595)nm (control)× 100 where A625(595)nm (control) is the absorbance of bacterial suspension/biofilm itself, and A625(595)nm(natural substance) is the absorbance of the bacterial suspension/biofilm with the added natural substance (NAC, RLs, and UA).
(§8) When the minimum inhibitory concentration could not be determined, the MIC was established as >the highest tested concentration for NAC, RLs, and UA.

E. coli 693/17 [4] = assay: MIC for planktonic cell growth (A625nm); assay type: cell-based, Escherichia coli; details: for MICPC80: ≥80% inhibition, 24 h
Protocol: as §5, §6, §7, §8

S. Infantis S13 = assay: MIC for planktonic cell growth (A625nm); assay type: cell-based, Salmonella enterica Infantis; details: for MICPC80: ≥80% inhibition, 24 h
Protocol: as §5, §6, §7, §8

S. Infantis S59 = assay: MIC for planktonic cell growth (A625nm); assay type: cell-based, Salmonella enterica Infantis; details: for MICPC80: ≥80% inhibition, 24 h
Protocol: as §5, §6, §7, §8

[5] = substance at its MICBM80, mean ± SD

Row | SMILES | Thickness (µm) subCBM80 (E. coli 693/17 [1]) | Thickness (µm) subCBM80 (E. coli 683/17 [2]) | maximal achieved inhibition (MICBF80 not reached) (E. coli 683/17 [3]; within tested concentrations) | MICBF80 (E. coli 683/17 [3]) | maximal achieved inhibition (MICPC80 not reached) (E. coli 693/17 [4]; within tested concentrations) | MICPC80 (E. coli 693/17 [4]) | maximal achieved inhibition (MICPC80 not reached) (S. Infantis S13; within tested concentrations) | MICPC80 (S. Infantis S13) | maximal achieved inhibition (MICPC80 not reached) (S. Infantis S59; within tested concentrations) | MICPC80 (S. Infantis S59) | Thickness (µm) MICBM80 (E. coli 693/17 [1]; [5]) | Thickness (µm) MICBM80 (E. coli 683/17 [2]; [5])
1 | CC(=O)c1c(O)c(C)c(O)c2c1OC1=CC(=O)C(C(C)=O)C(=O)C12C (single isomer, unassigned; (+)) [UA, (+)-usnic acid] | 256 ± 12.6 µm | 269 ± 28.1 µm | 10% | > 31.3 µg/mL | 40% | > 31.3 µg/mL | 25% | > 31.3 µg/mL | 31% | > 31.3 µg/mL | – | –
2 | CC(=O)N[C@@H](CS)C(=O)O [NAC, N-Acetyl-L-cysteine] | 181 ± 21.9 µm | 229 ± 9.9 µm | – | 6250 µg/mL | – | 6250 µg/mL | – | 6250 µg/mL | – | 6250 µg/mL | 273 ± 40.8 µm | 271 ± 50.7 µm
